Data taken from PMC11477289, “Low-Basicity 5-HT6 Receptor Ligands from the Group of Cyclic Arylguanidine Derivatives and Their Antiproliferative Activity Evaluation” (International Journal of Molecular Sciences, 2024).
Like-named read-outs stand apart in the source and are kept apart here.

Tests used:
human 5-HT6 [1] = target: T1, human 5-HT6 (Homo sapiens, UniProt P50406); test: [3H]-LSD radioligand binding assay, 5-HT6R; details: HEK293 expressing human 5-HT6R, read-out: 5-HT6 Ki
T1 construct: expressed in transfected cells
Procedure: Next, the ligands’ affinity for the 5-HT6 receptors was evaluated in the [^3H]-LSD radioligand binding assay. Experiments were performed in a stable HEK293 cell line expressing the human 5-HT6R.
The pellets were stored at −80 °C.

[2] = tested on: MCF7 breast carcinoma cell line; test: Antiproliferative activity (MTS), MCF7; details: read-out: IC50 Values MCF7
[3] = tested on: 1321N1 astrocytoma cell line; test: Antiproliferative activity (MTS), 1321N1; details: read-out: IC50 Values 1321N1
5-HT1A receptor = target: T2, 5-HT1A receptor (Homo sapiens, UniProt P08908); test: [3H]-8-OHDPAT radioligand binding assay, 5-HT1A
T2 sequence (P08908 1-422): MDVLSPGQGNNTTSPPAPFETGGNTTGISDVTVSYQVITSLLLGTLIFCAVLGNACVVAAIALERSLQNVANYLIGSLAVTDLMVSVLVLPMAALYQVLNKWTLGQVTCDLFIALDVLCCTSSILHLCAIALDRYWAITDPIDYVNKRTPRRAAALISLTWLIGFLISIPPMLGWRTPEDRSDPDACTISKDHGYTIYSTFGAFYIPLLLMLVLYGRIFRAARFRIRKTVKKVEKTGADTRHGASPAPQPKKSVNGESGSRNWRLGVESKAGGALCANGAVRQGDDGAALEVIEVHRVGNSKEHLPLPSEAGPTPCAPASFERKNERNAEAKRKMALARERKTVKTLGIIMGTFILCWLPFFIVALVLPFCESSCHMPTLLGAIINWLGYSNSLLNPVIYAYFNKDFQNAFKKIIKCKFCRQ

[4] = tested on: LN-229 glioblastoma cell line; test: Antiproliferative activity (MTS), LN-229; details: read-out: IC50 Values LN-229
[5] = tested on: AsPC-1 pancreas adenocarcinoma cell line; test: Antiproliferative activity (MTS), AsPC-1; details: read-out: IC50 Values AsPC-1
U-251 glioblastoma cells = test: Antiproliferative activity (MTS), U-251; details: read-out: IC50 Values U-251
[6] = target: human serum albumin (HSA) (Homo sapiens, UniProt P02768); test: Binding to HSA, Chiralpak HSA column
Description: We began with an assay for lipophilicity, affinity for phospholipids (for 40 compounds), and drug binding to human serum albumin (HSA) (for 20 compounds), using chromatographic protocols developed by Valko [46] and implemented in our laboratory. Compounds with the highest affinity for 5-HT6R and those showing the most promising ADMET parameters, including the possibility of BBB penetration, DDI, and lipophilicity, determined in silico in SwissADME [45], were selected for testing. These methods allowed the determination of chromatographic hydrophobicity indices (CHIs), binding to HSA (%HSA), and phospholipids (CHIIAM) using a single-gradient elution experiment and comparison to reference substances.
The use of columns modified with plasma proteins, such as HSA, also allows for the estimation of binding to HSA, which is the most dominant plasma protein (PP). Binding to PP affects drug pharmacokinetics, such as distribution, half-life, and clearance.
The mobile phase flow rate was 1.5 mL/min, and the column was maintained at 30 °C. • Chiralpak® HSA (50 mm × 4 mm; 5 µm with safety guard column; Daicel Chiral Technologies, West Chester, PA, USA), mobile phase A: 50 mM ammonium acetate, mobile phase B: HPLC-grade isopropanol (VWR International, Leuven, Belgium). For the first 15 min, the linear gradient from 0 to 20% isopropanol was applied and then held at 20% isopropanol for 12 min. In the last 5 min of the sequence, the mobile phase mixture received a pure ammonium acetate solution. The column temperature was held at 30 °C, whereas the flow rate was 0.9 mL/min.
The reference substances for the calibration of HSA, C18, and IAM columns were purchased, respectively: acetanilide, butyrophenone, diclofenac, and octanonophenone (Alfa Aesar, Haverhill, MA, USA); acetophenone, benzimidazole, colchicine, indole, indometacin, paracetamol, and theophylline (Sigma-Aldrich, Steinheim, Germany); nicardipine and nizatidine (Cayman Chemical, Ann Arbor, MI, USA); carbamazepine, heptanophenone, hexanophenone, propiophenone, and valerophenone (Acros Organic, Pittsburg, PA, USA). Before chromatographic experiments, solutes were dissolved in dimethyl sulfoxide (Avantor Performance Materials Poland S.A., Gliwice, Poland) to obtain a 200 µg/mL concentration. The detection was performed in the UV region at the wavelength from 190 nm to 300 nm. The injected volume was 5 μL, and each compound was analyzed in triplicate.

D2L receptor = D2L receptor (Homo sapiens, UniProt P14416); test: [3H]-raclopride radioligand binding assay, D2
U87MG glioblastoma cells = test: Antiproliferative activity (MTS), U87MG; details: 72 h, read-out: IC50 Values U87MG
[7] = Chromatographic hydrophobicity index on C18 column (lipophilicity); assay type: physicochemical
Description: (§1) We began with an assay for lipophilicity, affinity for phospholipids (for 40 compounds), and drug binding to human serum albumin (HSA) (for 20 compounds), using chromatographic protocols developed by Valko [46] and implemented in our laboratory [47]. […] These methods allowed the determination of chromatographic hydrophobicity indices (CHIs), binding to HSA (%HSA), and phospholipids (CHIIAM) using a single-gradient elution experiment and comparison to reference substances.

5-HT7b receptor = 5-HT7b receptor (Homo sapiens, UniProt P34969); test: [3H]-5-CT radioligand binding assay, 5-HT7
[8] = Affinity to phospholipids, IAM column (CHI IAM); assay type: physicochemical; details: IAM.PC.DD2 column, pH 7.4
Description: as §1

human 5-HT6 [9] = target: T1, human 5-HT6; test: Functional evaluation, cAMP (LANCE Ultra) in HEK293 cells; assay type: cell-based; details: for Kb: antagonist mode, cAMP induced by 5-CT 1000 nM
Procedure: The supernatant was aspirated, and the cell pellet was resuspended in a stimulation buffer (1 × HBSS, 5 mM HEPES, 0.5 mM IBMX, 0.1% BSA).
The functional properties of compounds were evaluated using the LANCE Ultra cAMP detection kit (PerkinElmer). […] To investigate the antagonist activity, dopamine for D2R was added at a concentration of 10 nM, and for cell lines with 5-HT7R, 5-HT1AR, or 5-HT6R, 5-CT concentrations were adjusted, being, respectively, 10, 100, and 1000 nM, according to the receptor subtype.
For the quantification of cAMP levels, cells (5 µL) were incubated with a 5 µL mixture of necessary compounds for 30 min at room temperature in a 384-well white opaque microtiter plate (PerkinElmer). After incubation, the reaction was stopped, and cells were lysed by the addition of a 10 µL working solution (5 µL Eu-cAMP and 5 µL ULight-anti-cAMP). The assay plate was incubated for 1 h at room temperature. The time-resolved fluorescence resonance energy transfer (TR-FRET) signal was detected by an Infinite M1000 Pro (Tecan, Männedorf, Switzerland) using instrument settings from the LANCE Ultra cAMP detection kit manual.

PAMPA permeability test = assay type: in vitro ADME; details: PBS pH 7.4, 5 h, room temperature
Procedure: This test allows the determination of the compound’s passive diffusion through biological membranes.
Precoated PAMPA Plate System Gentest was obtained from Corning (Tewksbury, MA, USA). Test compounds and caffeine solutions (200 µM) were prepared in a PBS buffer (pH = 7.4) and then added to the PAMPA plate. The plate was incubated at room temperature for 5 h without agitation. Then, 150 µL was aspirated from both acceptor (A) and donor (D) wells and then diluted with a 150 µL internal standard (IS) solution. The concentrations of the tested compounds in wells A and D were estimated using an LC/MS Waters ACQUITY™ TQD system with a TQ detector (Waters, Milford, CT, USA). The values of Pe were estimated according to the exact formulas provided by Corning and previously described in the literature.
4. Absorption – PAMPA permeability test
*Permeability coefficient. Compound is permeable if Pe≥1.5×10-6 cm/s
**CFN = caffeine, well-permeable control
UPLC of Caffeine solution in PBS (pH=7.4) after 5h of incubation: acceptor well
(above), donor well (below). IS – internal standard.
UPLC of PR 68 solution in PBS (pH=7.4) after 5h of incubation: acceptor well (above),
donor well (below). IS – internal standard. […]

5-HT5A receptor = 5-HT5A receptor (Homo sapiens, UniProt P47898); test: [3H]-LSD radioligand binding assay, 5-HT5A; details: read-out: 5-HT5A Ki; [3H]-LSD, HEK293
HEK293 = test: Cytotoxic activity on HEK293; assay type: cell-based; details: Homo sapiens
Description: Table 6 Extended receptor affinity study, with functional tests and cytotoxic activity of selected compounds on HEK293. | column: HEK293 / IC50 [µM]

[10] = tested on: normal human astrocytes (NHAs); test: Activity on normal astrocytes (MTS), NHA; details: for IC50: Homo sapiens, Astrocyte, 72 h, read-out: IC50 Values NHA
[11] = Metabolic stability in mouse liver microsomes (MLMs); assay type: in vitro ADME; details: mouse, mouse liver microsomes, 120 min
Procedure: The metabolic stability of PR 68, PR 73, and PR 76 were determined in mouse liver microsomes (MLMs).
The metabolic stability of PR 68 was estimated with mouse liver microsomes (MLMs) (Sigma-Aldrich, St. Louis, MO, USA). […] Cold methanol was then added to the reaction mixture to quench the reaction. The precipitated MLMs were centrifuged, and the supernatant was analyzed by LC/MS with a Waters ACQUITY™ TQD system with a TQ detector (Waters, Milford, USA).
(1 picture or pasted object on this page, not shown here)

T1 sequence (P50406 whole entry): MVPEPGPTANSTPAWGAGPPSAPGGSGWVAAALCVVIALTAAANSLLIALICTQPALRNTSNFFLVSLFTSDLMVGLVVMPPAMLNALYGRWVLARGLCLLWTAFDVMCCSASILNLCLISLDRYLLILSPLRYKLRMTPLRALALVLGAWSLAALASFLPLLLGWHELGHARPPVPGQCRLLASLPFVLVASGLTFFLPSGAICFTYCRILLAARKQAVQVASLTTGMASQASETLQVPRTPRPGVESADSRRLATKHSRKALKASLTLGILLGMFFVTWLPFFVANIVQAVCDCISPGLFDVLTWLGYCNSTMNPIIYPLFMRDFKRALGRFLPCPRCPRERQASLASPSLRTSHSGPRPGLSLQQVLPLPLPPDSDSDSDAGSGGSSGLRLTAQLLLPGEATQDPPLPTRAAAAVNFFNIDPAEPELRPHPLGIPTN
Sequence of human serum albumin (HSA) (P02768 25-609): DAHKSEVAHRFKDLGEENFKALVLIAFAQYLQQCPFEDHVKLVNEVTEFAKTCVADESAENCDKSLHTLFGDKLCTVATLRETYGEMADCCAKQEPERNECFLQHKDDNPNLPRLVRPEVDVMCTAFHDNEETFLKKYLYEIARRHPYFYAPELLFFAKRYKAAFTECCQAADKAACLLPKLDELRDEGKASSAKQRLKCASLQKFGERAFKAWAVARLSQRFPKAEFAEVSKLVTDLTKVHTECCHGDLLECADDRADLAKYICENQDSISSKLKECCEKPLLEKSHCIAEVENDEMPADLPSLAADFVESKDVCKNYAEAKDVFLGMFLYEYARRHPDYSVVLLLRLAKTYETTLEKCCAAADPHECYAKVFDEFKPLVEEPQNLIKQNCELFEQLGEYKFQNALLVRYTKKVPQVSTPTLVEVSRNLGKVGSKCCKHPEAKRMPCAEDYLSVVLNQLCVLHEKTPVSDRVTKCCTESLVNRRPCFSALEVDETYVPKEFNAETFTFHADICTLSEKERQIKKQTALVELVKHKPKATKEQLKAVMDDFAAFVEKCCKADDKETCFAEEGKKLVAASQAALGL
Sequence of 5-HT7b receptor (P34969 1-432 limits assumed): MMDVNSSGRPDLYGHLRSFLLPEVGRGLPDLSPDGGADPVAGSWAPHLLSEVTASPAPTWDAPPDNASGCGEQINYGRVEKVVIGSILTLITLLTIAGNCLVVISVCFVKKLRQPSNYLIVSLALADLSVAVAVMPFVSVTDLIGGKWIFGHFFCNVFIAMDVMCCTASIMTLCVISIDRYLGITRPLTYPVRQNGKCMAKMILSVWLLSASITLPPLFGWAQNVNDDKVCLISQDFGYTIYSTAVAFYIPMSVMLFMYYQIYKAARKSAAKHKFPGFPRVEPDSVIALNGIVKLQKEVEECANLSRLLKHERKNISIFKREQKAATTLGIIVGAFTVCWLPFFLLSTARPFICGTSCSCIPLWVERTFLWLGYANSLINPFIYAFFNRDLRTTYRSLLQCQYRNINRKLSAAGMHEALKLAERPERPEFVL
Sequence of D2L receptor (P14416 whole entry): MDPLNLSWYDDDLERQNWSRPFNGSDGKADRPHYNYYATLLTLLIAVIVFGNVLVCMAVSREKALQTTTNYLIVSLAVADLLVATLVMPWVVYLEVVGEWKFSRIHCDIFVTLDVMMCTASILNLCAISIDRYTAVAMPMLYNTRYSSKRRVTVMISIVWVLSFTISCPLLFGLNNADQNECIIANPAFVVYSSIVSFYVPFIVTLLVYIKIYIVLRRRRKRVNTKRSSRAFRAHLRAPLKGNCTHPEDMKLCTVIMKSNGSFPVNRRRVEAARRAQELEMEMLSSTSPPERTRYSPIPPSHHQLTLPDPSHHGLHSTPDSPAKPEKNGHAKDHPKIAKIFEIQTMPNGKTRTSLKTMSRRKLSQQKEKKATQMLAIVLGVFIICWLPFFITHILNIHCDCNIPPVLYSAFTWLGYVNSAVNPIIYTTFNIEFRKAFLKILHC
Sequence of 5-HT5A receptor (P47898 whole entry): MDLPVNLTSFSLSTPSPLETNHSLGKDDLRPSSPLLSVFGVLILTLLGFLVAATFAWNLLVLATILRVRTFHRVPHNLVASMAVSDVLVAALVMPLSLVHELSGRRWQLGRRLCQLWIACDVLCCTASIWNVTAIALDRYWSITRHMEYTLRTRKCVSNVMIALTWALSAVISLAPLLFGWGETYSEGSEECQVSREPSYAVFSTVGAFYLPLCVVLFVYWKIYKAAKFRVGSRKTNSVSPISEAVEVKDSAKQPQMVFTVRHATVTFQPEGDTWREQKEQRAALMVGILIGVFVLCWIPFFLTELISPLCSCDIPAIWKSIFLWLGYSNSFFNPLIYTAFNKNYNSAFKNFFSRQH

| Compound | Ki (human 5-HT6 [1]) [µM] | IC50 ([2]; Homo sapiens, MCF7, 72 h) [µM] | IC50 ([3]; Homo sapiens, 1321-N1, 72 h) [µM] | Ki (5-HT1A receptor) [µM] | IC50 ([4]; Homo sapiens, LN-229, 72 h) [µM] | IC50 ([5]; Homo sapiens, ASPC1, 72 h) [µM] | IC50 (U-251 glioblastoma cells; Homo sapiens, U-251, 72 h) [µM] | Ki (D2L receptor) [µM] | IC50 (U87MG glioblastoma cells; Homo sapiens, U-87 MG) [µM] | CHI C18 pH 2.6 [7] | CHI C18 pH 7.4 [7] | CHI C18 pH 10.5 [7] | Ki (5-HT7b receptor) [µM] | melting point [°C] | CHI IAM [8] | other results |
| --- | --- | --- | --- | --- | --- | --- | --- | --- | --- | --- | --- | --- | --- | --- | --- | --- |
| CC1OC(NS(=O)(=O)c2cccc3ccccc23)=Nc2ccccc21 (stereo not shown) [PR 77, N -(4-methyl-4H-3,1-benzoxazin-2-yl)naphthalene-1-sulfonamide] | 0.373 ± 0.092 | > 25 | > 25 | 7.54 | > 25 | > 25 | > 25 | 222 | > 25 | 102.5 | 99.9 | 103.2 | 56.7 | 229 to 233 | 40.8 | %HSA ([6]; Chiralpak HSA column): 95.9%; logKHSA ([6]; Chiralpak HSA column): 1.3 |
| CC1NC(NS(=O)(=O)c2cccc3ccccc23)=Nc2c(Cl)cccc21 (stereo not shown) [PR 71, N -(8-chloro-4-methyl-3,4-dihydroquinazolin-2-yl)naphthalene-1-sulfonamide] | 0.061 ± 0.014 | > 25 | > 25 | 134 | > 25 | > 25 | > 25 | 142 | > 25 | 102.2 | 100.7 | 103.8 | 37.5 | 215 to 219 | 44.8 | %HSA ([6]; Chiralpak HSA column): 97.5%; logKHSA ([6]; Chiralpak HSA column): 1.4; Kb (human 5-HT6 [9]): 0.035 µM |
| Cn1c(=O)c2c(ncn2C)n(C)c1=O [caffeine, reference compound] | – | – | – | – | – | – | – | – | – | – | – | – | – | – | – | Papp at 5 h, 200 µM (PAMPA permeability test; PAMPA, read-out: PAMPA Pe): 8.23 ×10⁻⁶ cm/s; PAMPA Pe (PAMPA permeability test): 8.23 10^−6 cm/s |
| N -[6-(4-methylpiperazin-1-yl)-3,4-dihydroquinazolin-2-yl]naphthalene-1-sulfonamide [PR 66] | 11.6 ± 2.66 | – | – | – | – | – | – | – | – | 81.4 | 79.6 | 80.7 | – | – | 36.0 | IC50 ([2]; 72 h, MTS): > 25 µM; IC50 ([3]; 72 h, MTS): > 25 µM; IC50 ([4]; 72 h, MTS): > 25 µM; IC50 ([5]; 72 h, MTS): > 25 µM; IC50 (U-251 glioblastoma cells; 72 h, MTS): > 25 µM; %HSA [6]: 92.7%; logKHSA [6]: 1.0; IC50 (U87MG glioblastoma cells; MTS): > 25 µM; Ki (5-HT5A receptor): 3.44 µM |
| O=S(=O)(NC1=Nc2c(Cl)cccc2CN1)c1cccc2ccccc12 [PR 49, N -(8-chloro-3,4-dihydroquinazolin-2-yl)naphthalene-1-sulfonamide] | 0.077 ± 0.018 | > 25 | > 25 | 207 | > 25 | > 25 | > 25 | – | > 25 | – | – | – | 142 | 250 to 256 | – | IC50 (HEK293): 38.8 µM; Kb (human 5-HT6 [9]): 0.081 µM |
| CN(C)C/C=C/C(=O)Nc1cc2c(Nc3ccc(F)c(Cl)c3)ncnc2cc1O[C@H]1CCOC1 [Afatinib, reference compound] | – | 25.9 | – | – | 9.8 | – | 27 | – | – | – | – | – | – | – | – | IC50 [10]: 7.5 µM |
| CC1c2ccccc2N=C(NS(=O)(=O)c2cccc3ccccc23)N1C (stereo not shown) [PR 76, N -(3,4-dimethyl-3,4-dihydroquinazolin-2-yl)naphthalene-1-sulfonamide] | 0.103 ± 0.025 | > 25 | > 25 | 11 | > 25 | > 25 | > 25 | 174 | > 25 | – | – | – | 35.6 | 215 to 217 | – | remaining at 2 h, 50 µM [11]: 87.4%; EC50 (human 5-HT6 [9]; agonist mode, cAMP): 0.199 µM; function at 5-HT6R (human 5-HT6 [9]; cAMP): agonist |
| CN(C)c1ccc2c(c1)CNC(NS(=O)(=O)c1cccc3ccccc13)=N2 [PR 64, N -[6-(dimethylamino)-3,4-dihydroquinazolin-2-yl]naphthalene-1-sulfonamide] | 0.851 ± 0.192 | 9.7 ± 1.7 | > 25 | – | > 25 | > 25 | 7.7 ± 0.8 | – | > 25 | – | – | – | – | 216 to 222 | – | IC50 [10]: 15.1 ± 2.1 µM; selectivity index ([10]; activity on NHA compared to U-251 cells): 1.96 |
